Measured values reported in patent US20070142317A1, “Topical composition for treatment of skin disorders” (QLT USA, Inc., priority 2003, published 2007).
Values joined by “and” are separate entries in the source; they are usually repeats but may differ in a detail not shown here. Equal entries are not always repeated. Where two headings read alike, the source gives them in different places.

Columns and labels:
[1] = test system: hairy cell leukemia (HCL); conditions: cited from earlier work
[2] = Calculated concentration in the skin assuming 7% penetration
[3] = for times safer than the oncology dose: 40 grams each day, 7% penetration
Source text: (§1) Systemic absorption is a concern, because of the potential for serious adverse events, such as lymphopenia and renal toxicity. At oncology doses, these adverse reactions are usually minimized, but the therapeutic index is narrow. Another factor that plays a role in the safety of the formulation is the amount of product administered each day. Approximately 4 grams, 12 grams, and 40 grams of a topical formulation are estimated to cover 10%, 30%, and 100% of the body surface area.
as §1
as §1, with “Calculations of safety margins have been performed, based upon this assumption and the known toxicity profile of F-Ara-A when administered IV for oncology indications. Systemic” for “Systemic”
as §1

[4] = biological target: dGK (Homo sapiens, UniProt Q16854); conditions: read-out: Km for dGK; cited from earlier work
dGK, sequence (Q16854 40-277, species assumed): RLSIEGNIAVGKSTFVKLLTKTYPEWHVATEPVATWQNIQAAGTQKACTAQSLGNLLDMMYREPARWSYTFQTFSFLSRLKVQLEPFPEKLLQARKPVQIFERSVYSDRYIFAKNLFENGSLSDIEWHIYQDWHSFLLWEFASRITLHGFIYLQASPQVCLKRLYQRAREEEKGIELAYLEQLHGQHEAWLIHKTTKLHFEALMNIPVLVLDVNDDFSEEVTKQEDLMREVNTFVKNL

[5] = test system: U-937 cells; test: Cytokine secretion by ELISA (Example 31); format: cell-based; conditions: drug 1 μM; for Cytokine Secretion IL-6 pg/ml Mean of 3 Replicates: LPS-activated cells
Procedure: In a search for a topical agent that can locally deplete levels of T-cells in the skin, apoptotic compounds were evaluated for their mechanisms of action. The ability that […] induce apoptosis by the same mechanisms was examined by cytokine secretion. […] Caspase-3 and cytokine (IL-2, IL-6, TNF, and IFN-γ) levels were determined and compared to controls at 23 and 46 hours. FdA was incorporated to evaluate the effect of the halogen group and Ara-C for its overlapping mechanisms of action. […] At the end of the treatment period, the cells were harvested and Caspase-3 induction was determined using a flow-cytometry-based method to quantify the percentage of cells that induced Caspase-3. The level of apoptosis is expressed as “% FITC shift”. Cytokine secretion (IL-2, IL-6, TNF, and IFN-γ) was measured at the same time by ELISA and is expressed in pg/mL. […]

[6] = test system: Jurkat cells; test: Cytokine secretion by ELISA (Example 31); format: cell-based; conditions: drug 1 μM; for Cytokine Secretion IL-2 pg/ml Mean of 3 Replicates: PHA-activated cells
Procedure: In a search for a topical agent that can locally deplete levels of T-cells in the skin, apoptotic compounds were evaluated for their mechanisms of action. The ability that […] induce apoptosis by the same mechanisms was examined by cytokine secretion. […] At the end of the treatment period, the cells were harvested and Caspase-3 induction was determined using a flow-cytometry-based method to quantify the percentage of cells that induced Caspase-3. The level of apoptosis is expressed as “% FITC shift”. Cytokine secretion (IL-2, IL-6, TNF, and IFN-γ) was measured at the same time by ELISA and is expressed in pg/mL.

[7] = test system: U-937 cells; conditions: Niiitsu et al 2000; cited from earlier work
[8] = test system: chronic lymphocytic leukemia (CLL); conditions: 25 mg/m^2 every day for 5 days; cited from earlier work
[9] = test system: monocytes; conditions: read-out: concentration that causes 50% inhibition of monocytes; cited from earlier work
[10] = intravenous; cited from earlier work
[11] = aqueous solution, cited from earlier work
[12] = test system: lymphocytes; conditions: same concentration of dCF, absence of dAdo, after 4 days of exposure; cited from earlier work

In the case of `Nc1nc(Cl)nc2c1ncn2[C@H]1C[C@H](O)[C@@H](CO)O1` [CdA, 2-chloro-2′-deoxyadenosine], the “time to responses and complete remissions” value ([1]; 3.6 mg/m^2 every day for 7 days) is listed as no more than 1 week, the “concentration achieved in the skin assuming 7% penetration” value ([2]; topical 0.00001% (0.0001 mg/g)) is listed as “approximately 25 nM” and the “Concentration in the skin assuming 7% penetration” value ([2]; topical concentration 0.00001%) is listed as 20 nM. The “Concentration in the skin assuming 7% penetration” value ([2]; topical concentration 0.00005%) was 120 nM, the “Concentration in the skin assuming 7% penetration” value ([2]; topical concentration 0.0001%) was 250 nM and the “Concentration in the skin assuming 7% penetration” value ([2]; topical concentration 0.001%) was 2450 nM. For the same molecule, the “Concentration in the skin assuming 7% penetration” value ([2]; topical concentration 0.01%) was 24500 nM, the “Concentration in the skin assuming 7% penetration” value ([2]; topical concentration 0.1%) was 245010 nM and the safety factor ([3]; 0.00005%, 30% of body surface area (10.8 grams/day), 7% systemic absorption) was 17,142. For the same molecule, the “times safer than the oncology dose” value ([3]; topical 0.00001%) was 23000, the “safety margin (times safer than the oncology dose)” value ([3]; topical 0.1% (1.0 mg/g), 10% BSA (4 grams per day), 7% systemic absorption) was 23 and the “systemic exposure per day” value ([3]; topical 0.1% (1.0 mg/g), 10% BSA (4 grams), 7% systemic absorption) was 0.28 mg. For the same molecule, the “safety margin (times safer than the oncology dose)” value ([3]; topical 0.1% (1.0 mg/g), 30% BSA (12 grams per day), 7% systemic absorption) was 7.7, the “systemic exposure per day” value ([3]; topical 0.1% (1.0 mg/g), 30% BSA (12 grams), 7% systemic absorption) was 0.84 mg and the “safety margin (times safer than the oncology dose)” value ([3]; topical 0.1% (1.0 mg/g), 100% BSA (40 grams per day), 7% systemic absorption) was 2.3. The “systemic exposure per day” value ([3]; topical 0.1% (1.0 mg/g), 100% BSA (40 grams), 7% systemic absorption) was 2.8 mg, the Km [4] was 80 µM and the “Cytokine Secretion IL-6 pg/ml Mean of 3 Replicates” value ([5]; 23 hr) was 7 pg/mL. The “effect on suppressing the production of IL-6” value ([5]; 46 hours) was “little effect”, the “Cytokine Secretion IL-6 pg/ml Mean of 3 Replicates” value ([5]; 46 hr) was 8 pg/mL and 7 pg/mL and the “Cytokine Secretion IL-2 pg/ml Mean of 3 Replicates” value ([6]; 23 hr) was 51 pg/mL. The “Cytokine Secretion IL-2 pg/ml Mean of 3 Replicates” value ([6]; 46 hr) was 105 pg/mL, the IL-2 concentration ([6]; Jurkat cells activated by PHA, 46 hours) was 105 pg/mL and the “concentration toxic to U-937 cells on its own” value [7] was 0.1 µM.

With `Nc1nc(F)nc2c1ncn2[C@@H]1O[C@H](CO)C(O)C1O` (stereo partly drawn) [F-Ara-A, 2-fluoroadenine-9β-D-Arabinofuranoside] the “concentration achieved in the skin assuming 7% penetration” value ([2]; topical 0.0002% (0.002 mg/g)) was “approximately 0.5 μM”, the “times safer than the oncology dose” value ([3]; topical 0.0002%) was 8036 and the “safety margin (times safer than the oncology dose)” value ([3]; topical 1.0% (10 mg/g), 10% BSA (4 grams per day), 7% systemic absorption) was 16. For the same molecule, the “systemic exposure per day” value ([3]; topical 1.0% (10 mg/g), 10% BSA (4 grams), 7% systemic absorption) was 2.8 mg, the “safety margin (times safer than the oncology dose)” value ([3]; topical 1.0% (10 mg/g), 30% BSA (12 grams per day), 7% systemic absorption) was 5.4 and the “systemic exposure per day” value ([3]; topical 1.0% (10 mg/g), 30% BSA (12 grams), 7% systemic absorption) was 8.4 mg. The “safety margin (times safer than the oncology dose)” value ([3]; topical 1.0% (10 mg/g), 100% BSA (40 grams per day), 7% systemic absorption) was 1.6, the “systemic exposure per day” value ([3]; topical 1.0% (10 mg/g), 100% BSA (40 grams), 7% systemic absorption) was 28 mg and the “time to complete remissions, on average” value [8] was 3 months. For the same molecule, the IC50 [9] was 500 nM.

In the case of `OC[C@H]1O[C@@H](n2cnc3c2NC=NC[C@H]3O)C[C@@H]1O` [dCF, (R)-3-(2-Deoxy-β-D-erythro-pentofuranosyl)-3,6,7,8-tetrahydroimidazo[4,5-d][1,3]diazepin-8-ol], the “time to complete remissions, on average” value ([1]; 4 mg/m^2 every 14 days) is listed as 6 months, the “Concentration in the skin assuming 7% penetration” value ([2]; topical concentration 0.00001%) is listed as 30 nM and the “Concentration in the skin assuming 7% penetration” value ([2]; topical concentration 0.00005%) is listed as 130 nM. For the same molecule, the “Concentration in the skin assuming 7% penetration” value ([2]; topical concentration 0.0001%) was 260 nM, the “Concentration in the skin assuming 7% penetration” value ([2]; topical concentration 0.001%) was 2610 nM and the “Concentration in the skin assuming 7% penetration” value ([2]; topical concentration 0.01%) was 26090 nM. For the same molecule, the “Concentration in the skin assuming 7% penetration” value ([2]; topical concentration 0.1%) was 260930 nM, the “safety margin (times safer than the oncology dose)” value [3] was 1.8 and the “drug recovered in the urine” value [10] was “Approximately 96%”. For the same molecule, the t50 ([11]; pH 1, 25° C.) was 5.6 min, the t50 ([11]; pH 5.0, 25° C.) was “about 3.5 days” and the t50 ([11]; pH 7.5, 25° C.) was “approximately 70 days”. The t50 ([11]; pH 12.6, 25° C.) was “approximately 45 days” and the growth inhibition [12] was 0-10%.
